# Experimental data published in the supplement of paper PMC10307832.
# Key:
# Assay in all cases: relative viability (nuclei count vs DMSO), 5 days (fraction); higher = more cells survive
# GW-2580 + Alpelisib = compound: COC1=CC=C(C=C1)COC2=C(C=C(C=C2)CC3=CN=C(N=C3N)N)OC [GW-2580] + Cc1nc(NC(=O)N2CCC[C@H]2C(N)=O)sc1-c1ccnc(C(C)(C)C(F)(F)F)c1 [Alpelisib] (partner 2 µM)
# Procedure, shortened: (§1)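 Lung cancer cell lines in 1536-well plates got either a single drug or a fixed anchor-drug dose together with five library-drug doses (not always all listed) in √10 steps, by pin tool, on the day after seeding. Nuclei were counted after 5 days, and relative viability is the treated-to-vehicle ratio of nuclei counts. Values are medians of duplicate plates.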
# GW-2580 + Vorinostat = compound: COC1=CC=C(C=C1)COC2=C(C=C(C=C2)CC3=CN=C(N=C3N)N)OC [GW-2580] + O=C(CCCCCCC(=O)Nc1ccccc1)NO [Vorinostat] (partner 1 µM)
# Procedure, shortened: as §1
# Fedratinib + OSI-027 = compound: Cc1cnc(Nc2ccc(OCCN3CCCC3)cc2)nc1Nc1cccc(S(=O)(=O)NC(C)(C)C)c1 [Fedratinib] + COc1cccc2cc(-c3nc([C@H]4CC[C@H](C(=O)O)CC4)n4ncnc(N)c34)[nH]c12 [OSI-027] (partner 0.5 µM)
# Procedure, shortened: as §1
# Fedratinib + Linsitinib = compound: Cc1cnc(Nc2ccc(OCCN3CCCC3)cc2)nc1Nc1cccc(S(=O)(=O)NC(C)(C)C)c1 [Fedratinib] + C[C@]1(O)C[C@@H](c2nc(-c3ccc4ccc(-c5ccccc5)nc4c3)c3c(N)nccn32)C1 [Linsitinib] (partner 1 µM)
# Procedure, shortened: as §1
# Fedratinib + Palbociclib = compound: Cc1cnc(Nc2ccc(OCCN3CCCC3)cc2)nc1Nc1cccc(S(=O)(=O)NC(C)(C)C)c1 [Fedratinib] + CC(=O)c1c(C)c2cnc(Nc3ccc(N4CCNCC4)cn3)nc2n(C2CCCC2)c1=O [Palbociclib] (partner 0.5 µM)
# Procedure, shortened: as §1
# Fedratinib + Dasatinib = compound: Cc1cnc(Nc2ccc(OCCN3CCCC3)cc2)nc1Nc1cccc(S(=O)(=O)NC(C)(C)C)c1 [Fedratinib] + Cc1nc(Nc2ncc(C(=O)Nc3c(C)cccc3Cl)s2)cc(N2CCN(CCO)CC2)n1 [Dasatinib] (partner 0.075 µM)
# Procedure, shortened: as §1
cell line,measurement,setting,value
UMC-11,relative viability,GW-2580 + Alpelisib; first compound 0.08 µM,0.959
same,relative viability,GW-2580 + Alpelisib; first compound 0.8 µM,1.07
same,relative viability,GW-2580 + Alpelisib; first compound 2.53 µM,1.11
same,relative viability,GW-2580 + Alpelisib; first compound 8 µM,1.21
same,relative viability,GW-2580 + Vorinostat; first compound 0.08 µM,0.384
same,relative viability,GW-2580 + Vorinostat; first compound 0.8 µM,0.391
same,relative viability,GW-2580 + Vorinostat; first compound 2.53 µM,0.513
same,relative viability,GW-2580 + Vorinostat; first compound 8 µM,0.413
same,relative viability,Fedratinib + OSI-027; first compound 0.1 µM,0.473
same,relative viability,Fedratinib + OSI-027; first compound 0.3162 µM,0.452
same,relative viability,Fedratinib + OSI-027; first compound 1 µM,0.373
same,relative viability,Fedratinib + Linsitinib; first compound 0.1 µM,0.995
same,relative viability,Fedratinib + Linsitinib; first compound 0.3162 µM,0.864
same,relative viability,Fedratinib + Linsitinib; first compound 1 µM,0.848
same,relative viability,Fedratinib + Palbociclib; first compound 0.1 µM,0.345
same,relative viability,Fedratinib + Palbociclib; first compound 0.3162 µM,0.311
same,relative viability,Fedratinib + Palbociclib; first compound 1 µM,0.301
same,relative viability,Fedratinib + Dasatinib; first compound 0.1 µM,0.53
same,relative viability,Fedratinib + Dasatinib; first compound 0.3162 µM,0.412
same,relative viability,Fedratinib + Dasatinib; first compound 1 µM,0.453
